The values that follow come from US8012929B2, “Peptides directed for diagnosis and treatment of amyloid-associated diseases” (Tel Aviv University Future Technology Development L.P., priority 2002, dated 2011).

Data set [1] in a line: Serum stability, human serum (HPLC). The format is in vitro ADME. Particulars: 37° C., 2 and 5 hours. An excerpt: D-Trp-Aib serum stability—Regardless of administration route, all drugs penetrate and distribute in the body via the blood system. This milieu is based not only on cells and buffering compounds, but also on proteins, carbohydrates, lipid-protein micelles, etc. Serum proteins mainly contain carrier proteins, such as albumin, but also contain many enzymes that might treat the drug as a substrate. Thus, the susceptibility of any drug entering this environment should be evaluated. The stability of D-Trp-Aib spiked into serum was evaluated by analysis of intact sample concentrations at different time points. D-Trp-Aib (250 μg/ml PBS) was incubated with mouse (Harlan Biotech, Israel) or human (obtained from Sheba medical center, Tel Hashomer, Israel) sera or PBS (1:1, 37° C.), and aliquots were analyzed by HPLC analysis at times 0, 2 and 5 hrs. The reaction was stopped and precipitation was effected by the addition of acetonitrile (Baker, Phillipsburg N.J.) and 10% TCA. Following centrifugation (10,000 g, 5 min), Supernatant was transferred to HPLC analysis. Mean amounts of D-Trp-Aib (μg)±s.e.m. were calculated by an internal calibration curve. […]

Data set [2] in a line: Membrane permeability in Caco-2 cell monolayer. Particulars: human, apical to basolateral, read-out: recovery at the experimental end point. The class given is in vitro ADME. How it is done: Membrane permeability of D-Trp-Aib as studied in Caco-2 cells—The CaCo-2 system is based on the intestinal properties of the Caco-2 cells (ATCC Accession No. HTB-37), which preserved the polarity that is seen in the intestinal wall—an apical brush border that faces the intestinal lumen and a basolateral side that faces the body. After initial culturing (37° C. in an atmosphere of 5% CO2 and 100% humidity; medium: D-glucose DMEM supplemented with 1% Lglutamine, 1% nonessential amino acids, 1% sodium pyruvate, 1% penicillinstreptomycin, and 10% fetal bovine serum), cells were harvested and grown (14 days) on polycarbonate membranes, on which they formed a tight monolayer, (width of one cell, as in the intestine) allowing specific compounds to penetrate. […] D-Trp-Aib membrane permeability of the Caco-2 cell monolayer was assessed at concentrations of 0.2 mM and 1 mM, and compared to the standards propranolol (1 mM/apical buffer-see below) and ^3H-mannitol (5.26 Ci/mmole apical buffer—see below), known to pass via transcellular and paracellular routes, respectively. […] Substance samples and Propranolol standard were analyzed using HPLC. ^3H-Mannitol samples were subjected to analysis by liquid scintillation counting in a Packard TopCount NXT. […]
(In general: Caco-2 monolayers are a common model of the intestinal barrier.)

The target of a further data set is CYP450 3A4 (Homo sapiens, UniProt P08684). Briefly: Human CYP450 screen 3A4. The format is in vitro ADME. An excerpt: For the metabolic stability assay, Human cytochrom P450 (CYP450) screens were used. The cytochrom P450 isoenzymes, which are located in the intestines, liver, lung, kidney and brain, are involved in important drug interactions. Drug metabolism occurs in two phases—Phase I involves oxidation, reduction, and hydrolysis. Phase II involves synthesis and conjugation. The CYP 450 isoenzymes are involved in Phase I oxidative reactions. CYP 450 interactions generally result from one of two processes—Induction, where a substance stimulates the synthesis of the enzyme and metabolic capacity is increased, and inhibition, where competitive binding at an enzyme's binding site(s) occurs. A drug with a high affinity for an enzyme will slow the metabolism of any low affinity drug. CYP 3A3/4 is the most abundant CYP 450 isoenzyme in humans and is responsible for the metabolism of the widest range of drugs/substances. (CYP450) screens used were 1A2, 2C9, 2C19, 2D6 and 3A4.

A short description of data set [3]: Acute toxicity in mice, single i.v. dose. Particulars: both sexes, mouse, in vivo, iv. How it is done:
Acute Toxicity in Mice—Single dose LD50 or maximal tolerated dose (MTD) of D-Trp-Aib was evaluated by i.v. administration in mice (Harlan Biotech Israel). The sequential method applied in a stepwise procedure, using a minimum amount of animals. At a preliminary phase, an initial single target dose of 250 mg/kg was administered to a group of one male and one female. Further higher dose levels of 500, 1,000 and 750 mg/kg were administered in view of presence or absence of lethality incidence and/or severe adverse reactions at each applied level. The time intervals between the test groups dosing sessions were at least 24 hours. Following termination of the preliminary phase and based on its findings, a main phase was conducted where 5 males & 5 females were administered the jointly selected dose of 750 mg/kg, the highest dose level that was suspected to produce no mortality.

Like-named read-outs stand apart in the source and are kept apart here. Square brackets hold non-standard residues; d marks the D form. Peptide text beside a SMILES is read from it. Aib = CC(C)(N)C(=O)O

Sequence of CYP450 3A4 (P08684 whole entry): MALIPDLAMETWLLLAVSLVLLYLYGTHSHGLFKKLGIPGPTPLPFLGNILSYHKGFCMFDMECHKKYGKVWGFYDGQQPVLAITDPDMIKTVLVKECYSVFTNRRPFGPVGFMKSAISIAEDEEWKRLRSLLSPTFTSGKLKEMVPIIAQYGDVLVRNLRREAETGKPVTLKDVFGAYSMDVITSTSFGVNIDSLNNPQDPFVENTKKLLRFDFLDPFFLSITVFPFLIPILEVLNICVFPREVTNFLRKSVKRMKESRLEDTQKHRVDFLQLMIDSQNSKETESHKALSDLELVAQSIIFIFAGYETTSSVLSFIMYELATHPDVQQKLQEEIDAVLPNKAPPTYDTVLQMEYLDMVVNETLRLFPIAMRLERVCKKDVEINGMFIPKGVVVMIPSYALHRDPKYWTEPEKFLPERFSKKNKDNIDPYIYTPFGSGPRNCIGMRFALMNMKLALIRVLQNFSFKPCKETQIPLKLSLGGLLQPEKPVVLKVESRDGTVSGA

On to `CC(C)(NC(=O)[C@H](N)Cc1c[nH]c2ccccc12)C(=O)O` [D-Trp-Aib] (H-[dW]-[Aib]-OH), for which, in data set [1], the “D-Trp-Aib concentration after incubation in serum” value is “No decrease”. Besides, the recovery at 90 min in data set [2] (0.2 mM) stood at 37.9%. For the same compound, the recovery at 90 min, 1 mM in data set [2] (1 mM) stood at 19.3%. In addition, the “activity in CYP450 screen” value on CYP450 3A4 is on record as “None of the results met significance criteria”. Also, the MTD in data set [3] is above 750 mg/kg; in data set [3] (single dose, i.v., read-out: maximal tolerated dose (MTD)), below 1000 mg/kg.
